Reference: PubChem BioAssay (NCI)
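Test compounds were applied to cells in 96-well plates for 48 hours at 5 doses. At the TGI there is no net growth.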

How the values were obtained:
Assay in all cases: NCI tumour cell line growth inhibition, 48 h
786-0 renal = test system: 786-0 renal
A498 renal = test system: A498 renal
A549 NSCLC = test system: A549 NSCLC
ACHN renal = test system: ACHN renal
BT-549 breast = test system: BT-549 breast
DU-145 prostate = test system: DU-145 prostate
EKVX NSCLC = test system: EKVX NSCLC
HCC-2998 colon = test system: HCC-2998 colon
HCT-116 colon = test system: HCT-116 colon
HCT-15 colon = test system: HCT-15 colon
HL-60(TB) leukemia = test system: HL-60(TB) leukemia
HOP-62 NSCLC = test system: HOP-62 NSCLC
HS 578T breast = test system: HS 578T breast
HT29 colon = test system: HT29 colon
IGROV1 ovarian = test system: IGROV1 ovarian
K-562 leukemia = test system: K-562 leukemia
KM12 colon = test system: KM12 colon
LOX IMVI melanoma = test system: LOX IMVI melanoma
M14 melanoma = test system: M14 melanoma
MALME-3M melanoma = test system: MALME-3M melanoma
MCF7 breast = test system: MCF7 breast
MDA-MB-231 breast = test system: MDA-MB-231 breast
MDA-MB-435 = test system: MDA-MB-435
MDA-N = test system: MDA-N
MOLT-4 leukemia = test system: MOLT-4 leukemia
NCI-H226 lung = test system: NCI-H226 lung
NCI-H460 lung = test system: NCI-H460 lung
NCI-H522 lung = test system: NCI-H522 lung
NCI/ADR-RES ovarian = test system: NCI/ADR-RES ovarian
OVCAR-3 ovarian = test system: OVCAR-3 ovarian
OVCAR-4 ovarian = test system: OVCAR-4 ovarian
OVCAR-5 ovarian = test system: OVCAR-5 ovarian
OVCAR-8 ovarian = test system: OVCAR-8 ovarian
PC-3 prostate = test system: PC-3 prostate
RPMI-8226 leukemia = test system: RPMI-8226 leukemia
SF-268 CNS = test system: SF-268 CNS
SF-295 CNS = test system: SF-295 CNS
SF-539 CNS = test system: SF-539 CNS
SK-MEL-2 melanoma = test system: SK-MEL-2 melanoma
SK-MEL-28 melanoma = test system: SK-MEL-28 melanoma
SK-OV-3 ovarian = test system: SK-OV-3 ovarian
SN12C renal = test system: SN12C renal
SNB-19 CNS = test system: SNB-19 CNS
SNB-75 CNS = test system: SNB-75 CNS
SR leukemia = test system: SR leukemia
SW-620 colon = test system: SW-620 colon
TK-10 renal = test system: TK-10 renal
U251 CNS = test system: U251 CNS
UACC-257 melanoma = test system: UACC-257 melanoma
UACC-62 melanoma = test system: UACC-62 melanoma
UO-31 renal = test system: UO-31 renal
CAKI-1 renal = test system: CAKI-1 renal
CCRF-CEM leukemia = test system: CCRF-CEM leukemia
COLO 205 colon = test system: COLO 205 colon
HOP-92 NSCLC = test system: HOP-92 NSCLC
NCI-H23 lung = test system: NCI-H23 lung
RXF 393 renal = test system: RXF 393 renal

Structure (SMILES): Clc1cc(Br)c2c3c(c(Br)cc(Cl)c13)C(Br)=C2Br
- TGI (786-0 renal): 47.7 µM
- TGI (A498 renal): > 100 µM
- TGI (A549 NSCLC): > 100 µM
- TGI (ACHN renal): 36.3 µM
- TGI (BT-549 breast): 78 µM
- TGI (DU-145 prostate): 90.9 µM
- TGI (EKVX NSCLC): > 100 µM
- TGI (HCC-2998 colon): 38.6 µM
- TGI (HCT-116 colon): 40.3 µM
- TGI (HCT-15 colon): 37.6 µM
- TGI (HL-60(TB) leukemia): 56 µM
- TGI (HOP-62 NSCLC): > 100 µM
- TGI (HS 578T breast): > 100 µM
- TGI (HT29 colon): 61.5 µM
- TGI (IGROV1 ovarian): 36.5 µM
- TGI (K-562 leukemia): > 100 µM
- TGI (KM12 colon): > 100 µM
- TGI (LOX IMVI melanoma): 32.2 µM
- TGI (M14 melanoma): > 100 µM
- TGI (MALME-3M melanoma): > 100 µM
- TGI (MCF7 breast): > 100 µM
- TGI (MDA-MB-231 breast): 82 µM
- TGI (MDA-MB-435): > 100 µM
- TGI (MDA-N): > 100 µM
- TGI (MOLT-4 leukemia): 45.6 µM
- TGI (NCI-H226 lung): > 100 µM
- TGI (NCI-H460 lung): > 100 µM
- TGI (NCI-H522 lung): 38.8 µM
- TGI (NCI/ADR-RES ovarian): 57.8 µM
- TGI (OVCAR-3 ovarian): > 100 µM
- TGI (OVCAR-4 ovarian): > 100 µM
- TGI (OVCAR-5 ovarian): > 100 µM
- TGI (OVCAR-8 ovarian): 93 µM
- TGI (PC-3 prostate): > 100 µM
- TGI (RPMI-8226 leukemia): 58.9 µM
- TGI (SF-268 CNS): 70.4 µM
- TGI (SF-295 CNS): > 100 µM
- TGI (SF-539 CNS): 35.7 µM
- TGI (SK-MEL-2 melanoma): > 100 µM
- TGI (SK-MEL-28 melanoma): > 100 µM
- TGI (SK-OV-3 ovarian): > 100 µM
- TGI (SN12C renal): 44.7 µM
- TGI (SNB-19 CNS): > 100 µM
- TGI (SNB-75 CNS): 71.7 µM
- TGI (SR leukemia): 58.1 µM
- TGI (SW-620 colon): > 100 µM
- TGI (TK-10 renal): 46.6 µM
- TGI (U251 CNS): > 100 µM
- TGI (UACC-257 melanoma): > 100 µM
- TGI (UACC-62 melanoma): 79.7 µM
- TGI (UO-31 renal): > 100 µM

Structure (SMILES): O[C@@H]1C[C@H]2N3CC[C@@]2(c2cc4c(cc2C3)OCO4)[C@H]2O[C@@H]12
- TGI (786-0 renal): > 100 µM
- TGI (A498 renal): > 100 µM
- TGI (A549 NSCLC): > 100 µM
- TGI (ACHN renal): > 100 µM
- TGI (BT-549 breast): > 100 µM
- TGI (CAKI-1 renal): > 100 µM
- TGI (CCRF-CEM leukemia): > 100 µM
- TGI (COLO 205 colon): 0.0204 µM
- TGI (DU-145 prostate): > 100 µM
- TGI (EKVX NSCLC): > 100 µM
- TGI (HCC-2998 colon): > 100 µM
- TGI (HCT-116 colon): > 100 µM
- TGI (HCT-15 colon): > 100 µM
- TGI (HL-60(TB) leukemia): > 100 µM
- TGI (HOP-62 NSCLC): > 100 µM
- TGI (HOP-92 NSCLC): > 100 µM
- TGI (HS 578T breast): > 100 µM
- TGI (HT29 colon): > 100 µM
- TGI (IGROV1 ovarian): > 100 µM
- TGI (K-562 leukemia): > 100 µM
- TGI (KM12 colon): > 100 µM
- TGI (LOX IMVI melanoma): > 100 µM
- TGI (M14 melanoma): > 100 µM
- TGI (MALME-3M melanoma): > 100 µM
- TGI (MCF7 breast): > 100 µM
- TGI (MDA-MB-231 breast): > 100 µM
- TGI (MDA-MB-435): > 100 µM
- TGI (MDA-N): > 100 µM
- TGI (MOLT-4 leukemia): > 100 µM
- TGI (NCI-H226 lung): 0.0792 µM
- TGI (NCI-H23 lung): > 100 µM
- TGI (NCI-H460 lung): > 100 µM
- TGI (NCI-H522 lung): > 100 µM
- TGI (NCI/ADR-RES ovarian): > 100 µM
- TGI (OVCAR-3 ovarian): > 100 µM
- TGI (OVCAR-4 ovarian): > 100 µM
- TGI (OVCAR-5 ovarian): > 100 µM
- TGI (OVCAR-8 ovarian): > 100 µM
- TGI (PC-3 prostate): > 100 µM
- TGI (RPMI-8226 leukemia): > 100 µM
- TGI (RXF 393 renal): > 100 µM
- TGI (SF-268 CNS): > 100 µM
- TGI (SF-295 CNS): > 100 µM
- TGI (SF-539 CNS): 0.041 µM
- TGI (SK-MEL-2 melanoma): > 100 µM
- TGI (SK-MEL-28 melanoma): > 100 µM
- TGI (SK-OV-3 ovarian): > 100 µM
- TGI (SN12C renal): > 100 µM
- TGI (SNB-19 CNS): > 100 µM
- TGI (SNB-75 CNS): > 100 µM
- TGI (SW-620 colon): > 100 µM
- TGI (TK-10 renal): > 100 µM
- TGI (U251 CNS): > 100 µM
- TGI (UACC-257 melanoma): > 100 µM
- TGI (UACC-62 melanoma): > 100 µM
- TGI (UO-31 renal): > 100 µM
